Reference: patent US10155990B2, “Method for predicting therapeutic efficacy of PI3K/AKT/mTOR inhibitor on basis of PHLDA1 or PIK3C2B expression” (Taiho Pharmaceutical Co., Ltd., priority 2013, dated 2018)

What was measured:
Type in all cases: cell-based
[1] = system: panel of 240 cell lines composed of various cancers; test: GI50 versus PHLDA1/PIK3C2B expression in a panel of 240 cell lines (OncoPanel, Ricerca Biosciences); conditions: panel of 240 cell lines of various cancers
Excerpt: It was also examined whether the expression level of PHLDA1 or PIK3C2B has a correlation with the sensitivity to PI3K/AKT/mTOR inhibitors in a panel of 240 cell lines (OncoPanel™, Ricerca Biosciences) composed of various cancers such as lung cancer, kidney cancer, liver cancer, pancreatic cancer, large bowel cancer, bladder cancer, breast cancer, head and neck cancer, prostate cancer, skin cancer, blood cancer, and malignant lymphoma.

[2] = system: human breast cancer cell line HCC1187; test: Cytotoxicity after PIK3C2B gene knockdown, HCC1187; conditions: relative cell count after three days, FIG. 3
[3] = system: 37 cell lines from human breast cancer; test: Cytotoxicity assay (CellTiter-Glo, GI50) in 37 human breast cancer cell lines, related to PHLDA1/PIK3C2B expression, PIK3CA mutation, PTEN deletion
Experimental: A cytotoxicity assay was conducted as described below using 37 cell lines from human breast cancer (AU565, BT20, BT474, BT549, CAMA-1, DU4475, HCC1187, HCC1419, HCC1428, HCC1500, HCC1569, HCC1599, HCC1806, HCC1937, HCC1954, HCC202, HCC2218, HCC38, HCC70, MDA-MB-157, MDA-MB-175, MDA-MB-231, MDA-MB-361, MDA-MB-415, MDA-MB-436, MDA-MB-453, MDA-MB-468, UACC-812, and UACC-893 (all obtained from American Type Culture Collection (ATCC); MCF-7, SK-BR-3, T47D, and ZR-75-1 (all obtained from Sumitomo Dainippon Pharma Co., Ltd.); KPL-1, KPL-3C, and KPL-4 (provided by Dr. Kurebayashi at Kawasaki Medical School)). Each cell line was seeded into a 96-well flat-bottom microplate in an amount of 150 μL, and cultured in an incubator containing 5% carbon dioxide gas at 37° C. for one day. PI3K/AKT/mTOR inhibitors (AKT inhibitor: Compound-I, MK-2206, PI3K-mTOR dual inhibitor: BEZ235, PI3K inhibitor: GDC-0941, mTOR inhibitor: sirolimus) diluted stepwise with dimethylsulfoxide, paclitaxel diluted stepwise with dimethylsulfoxide, and dimethylsulfoxide were individually added to respective media for the cell lines. 50 μL of each of the media was added to the wells of the aforementioned 96-well flat-bottom microplate so that the final concentration of each drug became 10,000, 3,000, 1,000, 300, 100, 30, 3, and 1 nM. A separately prepared 96-well flat-bottom microplate in which each cell line was cultured for one day was allowed to stand at room temperature for 30 minutes, and 50 μL of the supernatant was removed from each well to leave 100 μL of the cell culture solution. […] The microplate was allowed to stand in a dark place for 10 minutes, and then the luminescence intensity of live cells of each well to which the drug were added was measured using a microplate reader (PerkinElmer, ARVOsx). […] The microplate was allowed to stand in a dark place for 10 minutes, and then the luminescence intensity of live cells of each well was measured using a microplate reader. […]
Subsequently, the expression level of PHLDA1 and PIK3C2B in the 37 cell lines from human breast cancer was measured. […]

[4] = system: human ovarian cancer cell line OVCAR-3; test: Cytotoxicity after PIK3C2B gene knockdown, OVCAR-3; conditions: relative cell count after three days, FIG. 3
[5] = 37 human breast cancer cell lines, 3 days drug exposure, FIG. 1

Correlation between logarithm of GI50 and logarithm of expression level of PHLDA1 [1]	Correlation between logarithm of GI50 and logarithm of expression level of PIK3C2B [1]	Compound	Change in sensitivity to drug caused by PIK3C2B gene knockdown [2]	Correlation of PTEN deletion with sensitivity (GI50) ([3]; 36 cell lines, PTEN deletion in 8 cell lines, FIG. 4)	Change in sensitivity to drug caused by PIK3C2B gene knockdown [4]	Pearson correlation between logarithm of GI50 and logarithm of expression level of PHLDA1 [3, 5]	Pearson correlation between logarithm of GI50 and logarithm of expression level of PIK3C2B [3, 5]
significant correlation	significant correlation	Cn1c(=O)n(-c2ccc(C(C)(C)C#N)cc2)c2c3cc(-c4cnc5ccccc5c4)ccc3ncc21 [BEZ235, dactolisib]					
significant correlation	significant correlation	CC1(O)CC(N)(c2ccc(-c3nc4n(c3-c3ccccc3)COc3ccncc3-4)cc2)C1 (stereo not drawn) [Compound-I, trans-3-amino-1-methyl-3-(4-(3-phenyl-5H-imidazo[1,2-c]pyrido[3,4-e][1,3]oxazin-2-yl)phenyl)cyclobutanol]	decrease in sensitivity	did not show a correlation	decrease in sensitivity		
significant correlation	significant correlation	CS(=O)(=O)N1CCN(Cc2cc3nc(-c4cccc5[nH]ncc45)nc(N4CCOCC4)c3s2)CC1 [GDC-0941, pictilisib]	decrease in sensitivity		decrease in sensitivity		
significant correlation	significant correlation	NC1(c2ccc(-c3nc4ccn5c(=O)[nH]nc5c4cc3-c3ccccc3)cc2)CCC1 [MK-2206]					
		CC(=O)O[C@H]1C(=O)[C@@]2(C)[C@H]([C@H](OC(=O)c3ccccc3)[C@]3(O)C[C@H](OC(=O)[C@H](O)[C@@H](NC(=O)c4ccccc4)c4ccccc4)C(C)=C1C3(C)C)[C@]1(OC(C)=O)CO[C@@H]1C[C@@H]2O [paclitaxel]	almost no change		almost no change	did not show a correlation	did not show a correlation
